What all share (assay): cell-based
What all share (set-up): functional GPCR antagonist screen (Eurofins Cerep), percent inhibition of control agonist response
Common to all, as to details: antagonist effect, against control agonist; read-out: % Inhibition of Control Agonist Response, Mean

The target in one assay is T1, EP2 (h) (Homo sapiens, UniProt P43116).
T1 construct: gene PTGER2

For a further assay, the target named is T2, EP3 (h) (Homo sapiens, UniProt P43115).
T2 construct: gene PTGER3

A further assay deals with T3, IP (PGI2) (h) (Homo sapiens, UniProt P43119).
T3 construct: gene PTGIR

Another assay deals with T4, LPA2 (h) (Homo sapiens, UniProt Q9HBW0).
T4 construct: gene LPAR2

A further assay addresses T5, M4 (h) (Homo sapiens, UniProt P08173).
T5 construct: gene CHRM4

Another assay deals with T6, MC2 (h) (Homo sapiens, UniProt Q01718).
T6 construct: gene MC2R

In a further assay the target is T7, MC4 (h) (Homo sapiens, UniProt P32245).
T7 construct: gene MC4R

For a further assay, the target named is T8, MC5 (h) (Homo sapiens, UniProt P33032).
T8 construct: gene MC5R

The next assay concerns the target T9, MCH1 (h) (Homo sapiens, UniProt Q99705).
T9 construct: gene MCHR1

The target of another assay is T10, MRGX2 / MGRPLX2 (h) (Homo sapiens, UniProt Q96LB1).
T10 construct: gene MRGPRX2

In another assay the target is T11, MT1 (ML1A) (h) (Homo sapiens, UniProt P48039).
T11 construct: gene MTNR1A

For another assay, the target named is T12, MT2 (ML1B) (h) (Homo sapiens, UniProt P49286).
T12 construct: gene MTNR1B

The target in another assay is T13, NK1 (h) (Homo sapiens, UniProt P25103).
T13 construct: gene TACR1

The next assay concerns the target T14, NK2 (h) (Homo sapiens, UniProt P21452).
T14 construct: gene TACR2

Another assay concerns the target T15, NMU2 (h) (Homo sapiens, UniProt Q9GZQ4).
T15 construct: gene NMUR2

The target in the next assay is T16, NPBW1 (h) (Homo sapiens, UniProt P48145).
T16 construct: gene NPBWR1

In the next assay the target is T17, NPS (h) (Homo sapiens, UniProt Q6W5P4).
T17 construct: gene NPSR1

For another assay, the target named is T18, OX2 (h) (Homo sapiens, UniProt O43614).
T18 construct: gene HCRTR2

In another assay the target is T19, PK1 (h) (Homo sapiens, UniProt Q8TCW9).
T19 construct: gene PROKR1

The target of a further assay is T20, S1P3 (h) (Homo sapiens, UniProt Q99500).
T20 construct: gene S1PR3

A further assay addresses T21, S1P5 (h) (Homo sapiens, UniProt Q9H228).
T21 construct: gene S1PR5

The target in another assay is T22, TP (TXA2/PGH2) (h) (Homo sapiens, UniProt P21731).
T22 construct: gene TBXA2R

The target of the next assay is T23, motilin (h) (Homo sapiens, UniProt O43193).
T23 construct: gene MLNR

For another assay, the target named is T24, μ (MOP) (h) (Homo sapiens, UniProt P35372).
T24 construct: gene OPRM1

The structures appear in SMILES notation.

Usually inhibition stands for the change of the read-out against control, counted positive when it falls.

T4 sequence (Q9HBW0 whole entry): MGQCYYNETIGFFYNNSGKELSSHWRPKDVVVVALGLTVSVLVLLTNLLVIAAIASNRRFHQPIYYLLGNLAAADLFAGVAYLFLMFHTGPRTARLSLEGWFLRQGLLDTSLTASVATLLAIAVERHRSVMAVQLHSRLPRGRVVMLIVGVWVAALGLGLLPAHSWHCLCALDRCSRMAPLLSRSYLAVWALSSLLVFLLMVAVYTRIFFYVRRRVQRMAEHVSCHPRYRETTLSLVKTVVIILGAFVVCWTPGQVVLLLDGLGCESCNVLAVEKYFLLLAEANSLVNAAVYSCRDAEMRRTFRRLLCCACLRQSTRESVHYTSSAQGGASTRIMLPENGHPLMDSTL
T7 sequence (P32245 whole entry): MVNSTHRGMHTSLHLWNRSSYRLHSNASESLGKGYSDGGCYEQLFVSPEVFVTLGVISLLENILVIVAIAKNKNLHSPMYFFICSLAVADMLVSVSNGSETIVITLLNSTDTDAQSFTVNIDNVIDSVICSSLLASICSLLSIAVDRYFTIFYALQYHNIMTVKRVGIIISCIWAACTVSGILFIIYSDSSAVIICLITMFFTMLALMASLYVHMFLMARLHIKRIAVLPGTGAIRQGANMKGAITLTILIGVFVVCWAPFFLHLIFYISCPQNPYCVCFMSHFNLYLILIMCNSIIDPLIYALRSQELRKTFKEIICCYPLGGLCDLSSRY
T13 sequence (P25103 whole entry): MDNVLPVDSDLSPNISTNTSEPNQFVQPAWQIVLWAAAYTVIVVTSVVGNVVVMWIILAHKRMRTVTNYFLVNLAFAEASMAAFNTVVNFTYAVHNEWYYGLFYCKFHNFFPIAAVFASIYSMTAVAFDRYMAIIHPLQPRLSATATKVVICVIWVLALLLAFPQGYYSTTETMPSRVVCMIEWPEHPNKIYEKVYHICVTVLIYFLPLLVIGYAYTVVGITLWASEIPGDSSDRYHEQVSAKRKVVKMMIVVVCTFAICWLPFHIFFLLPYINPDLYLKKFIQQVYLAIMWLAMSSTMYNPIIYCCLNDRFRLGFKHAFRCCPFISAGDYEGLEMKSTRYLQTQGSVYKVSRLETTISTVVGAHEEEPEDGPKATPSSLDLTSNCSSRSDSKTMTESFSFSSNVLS
T2 sequence (P43115 whole entry): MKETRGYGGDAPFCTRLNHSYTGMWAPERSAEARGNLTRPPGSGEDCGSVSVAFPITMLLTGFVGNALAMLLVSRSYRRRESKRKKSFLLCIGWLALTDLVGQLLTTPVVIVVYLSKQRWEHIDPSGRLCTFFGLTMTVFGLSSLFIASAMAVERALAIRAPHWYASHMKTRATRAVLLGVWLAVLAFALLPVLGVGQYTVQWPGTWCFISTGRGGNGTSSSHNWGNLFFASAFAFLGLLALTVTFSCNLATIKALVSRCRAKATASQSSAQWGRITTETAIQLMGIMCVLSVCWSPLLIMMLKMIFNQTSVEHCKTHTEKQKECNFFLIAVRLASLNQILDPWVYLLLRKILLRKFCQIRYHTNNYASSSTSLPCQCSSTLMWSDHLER
T19 sequence (Q8TCW9 whole entry): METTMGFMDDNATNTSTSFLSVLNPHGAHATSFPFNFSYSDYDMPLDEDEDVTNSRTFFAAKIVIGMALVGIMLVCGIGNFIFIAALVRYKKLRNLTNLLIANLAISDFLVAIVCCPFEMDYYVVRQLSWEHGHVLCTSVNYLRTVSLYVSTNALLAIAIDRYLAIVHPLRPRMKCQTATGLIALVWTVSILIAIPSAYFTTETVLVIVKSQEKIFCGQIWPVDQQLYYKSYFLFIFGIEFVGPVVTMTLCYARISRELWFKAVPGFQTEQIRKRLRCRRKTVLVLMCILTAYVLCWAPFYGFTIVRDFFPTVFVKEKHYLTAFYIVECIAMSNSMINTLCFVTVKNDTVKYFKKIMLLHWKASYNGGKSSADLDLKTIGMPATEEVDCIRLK
T12 sequence (P49286 whole entry): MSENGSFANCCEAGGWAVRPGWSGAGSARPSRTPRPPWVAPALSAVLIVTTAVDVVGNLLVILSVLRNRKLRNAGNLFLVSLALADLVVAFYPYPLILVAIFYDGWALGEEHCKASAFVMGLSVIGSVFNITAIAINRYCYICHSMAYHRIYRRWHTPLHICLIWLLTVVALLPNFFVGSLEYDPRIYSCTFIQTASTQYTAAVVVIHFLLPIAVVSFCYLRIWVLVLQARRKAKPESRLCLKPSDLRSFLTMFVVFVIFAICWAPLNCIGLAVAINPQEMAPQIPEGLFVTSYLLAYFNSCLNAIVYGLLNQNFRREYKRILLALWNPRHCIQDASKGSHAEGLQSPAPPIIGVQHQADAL
T21 sequence (Q9H228 whole entry): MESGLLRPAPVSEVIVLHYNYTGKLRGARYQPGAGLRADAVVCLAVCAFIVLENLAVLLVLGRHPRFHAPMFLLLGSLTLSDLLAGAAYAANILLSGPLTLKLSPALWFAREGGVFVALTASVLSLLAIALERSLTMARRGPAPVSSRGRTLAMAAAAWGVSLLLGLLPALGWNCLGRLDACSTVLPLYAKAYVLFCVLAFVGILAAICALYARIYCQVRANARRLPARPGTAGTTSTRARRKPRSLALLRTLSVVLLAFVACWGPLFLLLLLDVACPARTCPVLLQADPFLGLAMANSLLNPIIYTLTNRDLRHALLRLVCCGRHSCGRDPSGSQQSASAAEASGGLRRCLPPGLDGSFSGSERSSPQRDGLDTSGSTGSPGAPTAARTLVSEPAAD
T20 sequence (Q99500 whole entry): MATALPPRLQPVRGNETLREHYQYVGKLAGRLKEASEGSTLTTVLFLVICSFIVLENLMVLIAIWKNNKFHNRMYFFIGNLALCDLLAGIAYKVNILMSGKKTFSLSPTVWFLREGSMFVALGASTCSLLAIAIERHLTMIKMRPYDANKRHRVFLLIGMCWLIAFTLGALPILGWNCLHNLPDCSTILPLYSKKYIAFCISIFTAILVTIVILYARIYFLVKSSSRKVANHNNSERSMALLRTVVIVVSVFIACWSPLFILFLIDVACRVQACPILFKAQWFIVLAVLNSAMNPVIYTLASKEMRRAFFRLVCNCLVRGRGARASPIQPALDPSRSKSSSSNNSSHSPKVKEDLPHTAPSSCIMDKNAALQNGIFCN
T11 sequence (P48039 whole entry): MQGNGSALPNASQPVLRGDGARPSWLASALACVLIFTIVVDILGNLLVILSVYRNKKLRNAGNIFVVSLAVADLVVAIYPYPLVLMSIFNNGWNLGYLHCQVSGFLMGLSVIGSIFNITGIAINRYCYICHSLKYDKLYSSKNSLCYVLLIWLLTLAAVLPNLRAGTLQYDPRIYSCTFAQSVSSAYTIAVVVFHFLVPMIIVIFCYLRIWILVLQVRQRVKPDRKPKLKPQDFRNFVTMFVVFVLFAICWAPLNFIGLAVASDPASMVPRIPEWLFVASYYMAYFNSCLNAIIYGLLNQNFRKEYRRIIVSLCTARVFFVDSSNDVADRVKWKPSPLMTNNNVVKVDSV
T23 sequence (O43193 whole entry): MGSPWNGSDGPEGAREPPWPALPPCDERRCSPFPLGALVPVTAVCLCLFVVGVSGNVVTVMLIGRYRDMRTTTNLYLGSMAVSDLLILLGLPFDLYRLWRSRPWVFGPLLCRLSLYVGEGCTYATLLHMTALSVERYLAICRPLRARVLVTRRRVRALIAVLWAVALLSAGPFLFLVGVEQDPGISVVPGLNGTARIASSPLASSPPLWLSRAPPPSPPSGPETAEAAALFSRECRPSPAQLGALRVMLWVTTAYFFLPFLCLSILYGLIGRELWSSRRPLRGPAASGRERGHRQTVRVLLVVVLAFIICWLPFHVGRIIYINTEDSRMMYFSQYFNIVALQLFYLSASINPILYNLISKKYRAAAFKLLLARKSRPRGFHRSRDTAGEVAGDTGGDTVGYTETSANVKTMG
T1 sequence (P43116 whole entry): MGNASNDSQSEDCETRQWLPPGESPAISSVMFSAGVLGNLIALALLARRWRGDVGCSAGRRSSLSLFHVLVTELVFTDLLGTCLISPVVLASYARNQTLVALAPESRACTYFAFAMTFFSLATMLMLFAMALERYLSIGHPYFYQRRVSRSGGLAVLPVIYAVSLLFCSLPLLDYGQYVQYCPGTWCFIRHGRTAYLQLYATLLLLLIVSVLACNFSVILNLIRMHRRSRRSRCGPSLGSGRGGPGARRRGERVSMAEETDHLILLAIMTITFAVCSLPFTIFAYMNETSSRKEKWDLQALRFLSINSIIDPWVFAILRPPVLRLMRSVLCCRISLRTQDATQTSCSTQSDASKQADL
T10 sequence (Q96LB1 whole entry): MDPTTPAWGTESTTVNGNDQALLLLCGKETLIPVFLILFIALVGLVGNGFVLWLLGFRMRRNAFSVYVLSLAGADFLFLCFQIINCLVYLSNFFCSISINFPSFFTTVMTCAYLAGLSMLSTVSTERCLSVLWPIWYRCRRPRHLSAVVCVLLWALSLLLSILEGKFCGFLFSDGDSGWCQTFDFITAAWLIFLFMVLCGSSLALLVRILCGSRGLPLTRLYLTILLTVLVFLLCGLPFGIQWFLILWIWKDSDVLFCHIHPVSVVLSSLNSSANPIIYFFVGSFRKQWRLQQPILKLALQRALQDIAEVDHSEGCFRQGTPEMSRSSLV
T3 sequence (P43119 whole entry): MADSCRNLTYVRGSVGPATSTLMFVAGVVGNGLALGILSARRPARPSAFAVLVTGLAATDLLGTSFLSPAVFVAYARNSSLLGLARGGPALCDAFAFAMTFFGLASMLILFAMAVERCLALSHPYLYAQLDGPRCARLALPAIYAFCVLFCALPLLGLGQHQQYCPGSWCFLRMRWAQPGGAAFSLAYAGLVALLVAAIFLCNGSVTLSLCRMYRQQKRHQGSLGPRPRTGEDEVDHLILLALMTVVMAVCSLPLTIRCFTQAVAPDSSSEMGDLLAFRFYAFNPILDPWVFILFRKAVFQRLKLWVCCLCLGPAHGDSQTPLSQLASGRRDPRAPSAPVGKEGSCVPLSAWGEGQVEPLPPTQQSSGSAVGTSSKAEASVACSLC

`[O-][S@@+](Cc1cncs1)C(c1ccccc1)c1ccccc1` [S-CE-123, (S)-5-((Benzhydrylsulfinyl)Methyl)Thiazole]: the inhibition at 2.8 µM was 0.7% at EP2 (h); -30.8% on EP3 (h); 16.3% on IP (PGI2) (h); -10.9% on LPA2 (h); -8.5% at M4 (h); 3.1% on MC2 (h). In addition, the inhibition at 2.8 µM at MC4 (h) was 2.3%; on MC5 (h), -8.9%; at MCH1 (h), -0.9%; on MRGX2 / MGRPLX2 (h) it was 7.1%; at MT1 (ML1A) (h) it was 7.6%; on MT2 (ML1B) (h), 6.2%. The inhibition at 2.8 µM on NK1 (h) was -5.3%; on NK2 (h), -0.8%; on NMU2 (h), -17.7%; on NPBW1 (h), -1.9%; on NPS (h), -14.3%; at OX2 (h), 4.2%. Besides, the inhibition at 2.8 µM was 2.5% on PK1 (h); 12.2% on S1P3 (h); 3.7% at S1P5 (h); 2.5% at TP (TXA2/PGH2) (h); -5.2% at motilin (h); 5% at μ (MOP) (h).
